Laboratory results from patent US5892071A, “Cationic transport reagents” (The Reagents of The University of California, priority 1995, dated 1999).
One block for each molecule: values may come before it.

Experiments:
transfected cells = assay: Alamar Blue toxicity assay; assay type: cell-based
Description: Usually, 24 well tissue culture plates containing 5.0×10^4 cells/well rapidly dividing adherent NIH 3T3 cells per well were transfected. The growth media was removed via aspiration and the cells were washed once with 0.5 mL PBS/well. A 200 μl aliquot of liposome-DNAcomplex was added to each well and the cells were allowed to incubate for 4 hr. at 37° C. If desired, at this time, 1 mL of DMEM+10% fetal calf serum/well was added and the cells were allowed to incubate for an additional 48 hr, after which assays of toxicity and/or efficacy were performed. Equivalent procedures were utilized for the DU-145 cells.
Alamar blue (Alamar Biosciences, Sacramento, Calif.), was diluted in cell culture media to 10%, added to cells, and incubated for up to two hours. Reduced dye was quantitated using a CytoFluor 2300 fluorescence plate reader with a 530 nm excitation filter and a 590 nm emission filter. Values expressed represent fluorescence less background. The same transfected cells can subsequently be assayed for reporter protein activity after Alamar Blue analysis.

NIH 3T3 cells = assay: Luciferase transfection assay (pCMVL plasmid), NIH 3T3 cells; assay type: cell-based, Murine
Description: NIH 3T3 cells were grown in Dulbecco's modified Eagles medium (DMEM)+10% fetal calf serum. The DNA plasmid pCMVL was prepared by standard methods and used as a 369 ng/μl solution in TE, pH=7.6. The luciferase reporter plasmid pCMVL was prepared at UC Davis, and consists of the P. pyralis luciferase cDNA subcloned into the plasmid pRc/CMV (Invitrogen).
Multilamellar and small sonicated vesicles were prepared by addition of the cationic lipid DOHME together with DOPE, both as solutions in chloroform, to a 5 mL sample vial. The chloroform was removed via rotary evaporation with the water bath set at a constant temperature of 37° C. The resulting thin lipid films were placed under high vacuum overnight to insure that all traces of solvent had been removed. The lipid mixture was resuspended using distilled water ([…] total lipid/1 mL water) and vortex mixed to give a suspension of MLVs. This cloudy suspension was sonicated for fifteen minutes using a bath sonicator until a clear suspension containing SVs was obtained.
Sequential addition of DMEM (with or without 10% fetal calf serum), pCMVL plasmid (for n=4, 4 μg), and liposome formulation into a 2 mL Eppendorf tube gave a total volume of 800 μl. The relative amount of liposome:pCMVL plasmid used was determined by the desired cationic lipid:DNA phosphate charge ratio. The mixing of these substances was followed by thorough vortexing.
Usually, 24 well tissue culture plates containing 5.0×10^4 cells/well rapidly dividing adherent NIH 3T3 cells per well were transfected. The growth media was removed via aspiration and the cells were washed once with 0.5 mL PBS/well. […]
Transfection activity was measured using the luciferase assay. Luciferase assays were performed with a luciferase assay kit (purchased from Analytical Luminescence Laboratories) using a Monolight 2010 luminometer (Analytical Luminescence Laboratories, San Diego, Calif.) according to the manufacturer's instructions. […] Luciferase light emissions from 100 μl of the lysate were measured using the luminometer.

NIH 3T3 fibroblasts = assay: Hydrophobic and polar domain transfection analysis of PolyGum derivatives (luciferase specific activity, pGL3I+); assay type: cell-based, Murine; details: for transfection effectiveness ranking among methoxy PolyGum derivatives: 1 microgram plasmid DNA pGL3I+, 48 hours (FIG. 9)
Description: Transfection activity was measured using the luciferase assay. Luciferase assays were performed with a luciferase assay kit (purchased from Analytical Luminescence Laboratories) using a Monolight 2010 luminometer (Analytical Luminescence Laboratories, San Diego, Calif.) according to the manufacturer's instructions. The media was removed from the transfected cells via aspiration. 0.5 mL of luciferase buffer/well was added, and the cells were placed on ice for 15 min. Luciferase light emissions from 100 μl of the lysate were measured using the luminometer.
Shown in FIG. 9 are hydrophobic and polar domain transfection results for various synthesized PolyGum derivatives. In the tests, 1.0×10^5 NIH 3T3 fibroblasts were plated 24 hours prior to transfection. Cell lysates were obtained 48 hours after transfection and assayed for luciferase specific activity. The data presented in FIG. 9 corresponds to the ability of the subject cationic lipid to mediated delivery of 1 microgram of plasmid DNA (pGL3I+).

SMILES: CCCCCCCC/C=C\CCCCCCCC(=O)OC(C[N+](C)(C)CCO)C(C[N+](C)(C)CCO)OC(=O)CCCCCCC/C=C\CCCCCCCC.[I-].[I-] (centres unmarked) [PolyGum, N,N,N',N'-tetramethyl-N,N'-bis(2-hydroxyethyl)-2,3-di(oleoyloxy)-1,4-butanediaminium iodide]
toxicity versus LIPOFECTIN and several other amine containing vesicles (transfected cells; PolyGum MLV formulation): less toxicity
toxicity versus LIPOFECTIN and several other amine containing vesicles (transfected cells; PolyGum SV formulation): less toxicity
effect of serum on PolyGum (MLV) mediated transfection (NIH 3T3 cells; MLV, serum-free versus 10% calf serum (FIG. 3)): greatly increased transfection is found with serum-free conditions than in the presence of 10% calf serum
efficiency of transfection as mole ratio of DOPE to PolyGum is increased (NIH 3T3 cells; SV, serum-free (FIG. 5)): the efficiency of transfection is lowered in a generally linear fashion
effect of serum on PolyGum mediated transfection under other transfection conditions (NIH 3T3 cells; other transfection conditions, with serum): little change is noted with serum transfection

transfection effectiveness ranking among methoxy PolyGum derivatives (NIH 3T3 fibroblasts): most effective in transfection
SMILES: CCCCCCCCCCCCCCCC(=O)OC(C[N+](C)(C)CCOC)C(C[N+](C)(C)CCOC)OC(=O)CCCCCCCCCCCCCCC (centres unmarked) [DP-PG-Me]

transfection effectiveness ranking among methoxy PolyGum derivatives (NIH 3T3 fibroblasts): least effective in transfection
SMILES: CCCCCCCCCCCC(=O)OC(C[N+](C)(C)CCOC)C(C[N+](C)(C)CCOC)OC(=O)CCCCCCCCCCC (racemic) [DL-PG-Me]

SMILES: CCCCCCCCCCCCCC(=O)OC(C[N+](C)(C)CCOC)C(C[N+](C)(C)CCOC)OC(=O)CCCCCCCCCCCCC (centres unmarked) [DM-PG-Me]
transfection efficiency, methoxy versus non-methoxy form (NIH 3T3 fibroblasts; DM-PG-Me versus DM-PG-OH (FIG. 9)): more efficient in transfection than the non-methoxy form
